Measurements published in PMC11992225, “Antibacterial compounds against non-growing and intracellular bacteria” (npj Antimicrobials and Resistance, 2025).
Where “and” joins values, the source holds several entries; their conditions need not be identical. Identical values can stand only once.

Key:
[1] = tested on: non-growing S. aureus DSM2569; test: Dose-dependent killing analysis (CFU spot-plating) of stationary-phase S. aureus; type: cell-based, Staphylococcus aureus; settings: for log10(CFU/ml) after treatment, single replicates / Killing: average Δlog10(CFU/ml) / average Δlog10(CFU/ml) (killing): S. aureus; for Killing: average Δlog10(CFU/ml) / average Δlog10(CFU/ml) (killing): vs 9,097 before treatment
Experimental: To determine the spectrum of activity of the compounds that were effective against non-growing UPEC, we further assessed their efficacy against the well-characterized Gram-negative and Gram-positive reference strains P. aeruginosa DSM1117 and S. aureus DSM2569, respectively. The cultures were grown and treated for 24 h in 1:4 CA-MHB (pH 7.4). […].
For survival analysis, bacteria were cultivated as described for the dose–response dilution-regrowth assay. Assays with UPEC were conducted at the CBCS screening facility using 96-well plates with a 200 μl sample volume, and compounds were dispensed using the Echo® (Labcyte) system. P. aeruginosa and S. aureus samples were treated according to the protocol used for the dilution-regrowth experiments. Treated samples were serially diluted 10-fold in PBS, and 10 μl drops were spot-plated onto rectangular LB agar plates using either a Beckman NXP robot (for UPEC) or an Integra VIAFLO96 electronic pipette (for P. aeruginosa and S. aureus). The LB agar plates were incubated overnight at 37 °C and scanned. Colonies were counted at the spots of the lowest dilution where individual colonies could be accurately distinguished. Each colony was manually marked on a separate image layer using the GNU Image Manipulation Program, and counted using NIST’s Integrated Colony Enumerator (NICE 1.4) software. The experiments were performed in three biological replicates.

[2] = tested on: non-growing S. aureus DSM2569; test: Dilution-regrowth assay (OD600, start-growth-time) on stationary-phase S. aureus; type: cell-based, Staphylococcus aureus; settings: S. aureus; for Regrowth: OD600 after dilution into drug-free medium (mean): OD600 at 6h or 8h; for EC50: Staphylococcus aureus, DSM2569, regrowth delay of non-growing bacteria, 1:4 CA-MHB pH 7.4, 24 h treatment, OD600 8 h after dilution, read-out: EC50
Experimental: The cultures were grown and treated for 24 h in 1:4 CA-MHB (pH 7.4).
This approach allowed us to capture the time when cultures reached a threshold optical density (start-growth-time, SGT[15]).
The cultures were incubated for 24 h in non-baffled Erlenmeyer flasks at 37 °C with shaking at 200 rpm.
For P. aeruginosa and S. aureus, dose–response analysis was conducted in 96-well plates with a 200 μl assay volume, following the procedure used for screening assay validation experiments. […] Stock solutions were prepared and stored according to the manufacturers’ instructions, then diluted in 10% DMSO before use. Cultures were incubated for 24 h in 1:4 diluted CA-MHB medium under the same conditions used for UPEC cultivation. In preliminary experiments, each compound was tested at a concentration of 20 μM in the dilution-regrowth assay with 4 technical replicates. Regrowth was monitored using a microplate reader at 37 °C with continuous shaking, and OD600 was recorded every 20 min. The time at which OD600 exceeded the threshold of 0.12 was recorded as the Start_Growth-Time.
Statistical significance of the drug effects was assessed using a one-way ANOVA followed by Dunnett’s test, comparing each treatment to the drug-free control. Statistical significance of the differences in chemical characteristics between the hit compounds and the Prestwick library was assessed using a Mann–Whitney test. Statistical significance was set at P ≤ 0.05. A five-parameter logistic equation was used for asymmetric sigmoidal curve fitting and for EC50 and IC50 determination. The Venn diagram in Fig. 1F was prepared using BioVenn web application. Characteristics of the chemical and physical properties of Prestwick library compounds were obtained from Supplementary Table S1 from reference. Characteristics of the hit compounds not included in the Prestwick library were retrieved from the PubChem database.

[3] = tested on: non-growing UPEC CFT073; test: Dose-dependent killing analysis (CFU spot-plating) of stationary-phase UPEC; type: cell-based, Escherichia coli
How it was run: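 Killing assessed by CFU counts: overnight 37 °C LB agar spot plates (10 μl drops of 10-fold PBS dilutions) scored at the lowest dilution with distinct colonies. Samples were compound-treated non-growing UPEC CFT073, 200 μl per well. Performed as three biological replicates.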

For `CO[C@H]1/C=C/O[C@@]2(C)Oc3c(C)c(O)c4c(O)c(c(/C=N/N5CCN(C6CCCC6)CC5)c(O)c4c3C2=O)NC(=O)/C(C)=C\C=C\[C@H](C)[C@H](O)[C@@H](C)[C@@H](O)[C@@H](C)[C@H](OC(C)=O)[C@@H]1C` [Rifapentine], the “log10(CFU/ml) after treatment, single replicates” value (from here on “log10(CFU/ml) after treatment”) ([1]; concentration 0.1) was 8.708 log10(CFU/ml) and 8.968 log10(CFU/ml) and 8.653 log10(CFU/ml), the “Killing: average Δlog10(CFU/ml)” value ([1]; concentration 0.1) was 0.321 log10(CFU/ml) and the “log10(CFU/ml) after treatment” value ([1]; concentration 0.5) was 8.732 log10(CFU/ml) and 8.954 log10(CFU/ml) and 8.491 log10(CFU/ml). For the same compound, the “Killing: average Δlog10(CFU/ml)” value ([1]; concentration 0.5) was 0.371 log10(CFU/ml), the “log10(CFU/ml) after treatment” value ([1]; concentration 2.5) was 8.672 log10(CFU/ml) and 8.748 log10(CFU/ml) and 8.643 log10(CFU/ml) and the “Killing: average Δlog10(CFU/ml)” value ([1]; concentration 2.5) was 0.409 log10(CFU/ml). The “log10(CFU/ml) after treatment” value ([1]; concentration 10) was 8.756 log10(CFU/ml) and 8.477 log10(CFU/ml) and 8.544 log10(CFU/ml), the “Killing: average Δlog10(CFU/ml)” value ([1]; concentration 10) was 0.505 log10(CFU/ml) and the “Regrowth: OD600 after dilution into drug-free medium (mean)” value ([2]; concentration 0.1) was 0.215. For the same compound, the “Regrowth: OD600 after dilution into drug-free medium (mean)” value ([2]; concentration 0.5) was 0.149, the “Regrowth: OD600 after dilution into drug-free medium (mean)” value ([2]; concentration 2.5) was 0.116 and the “Regrowth: OD600 after dilution into drug-free medium (mean)” value ([2]; concentration 10) was 0.091. The EC50 [2] was 0.041 µM, the “log10(CFU/ml) after treatment” value ([3]; E. coli in 1:4 CA-MHB (pH 7.4), concentration 0.25) was 9.114 log10(CFU/ml) and 8.301 log10(CFU/ml) and 8.415 log10(CFU/ml) and the “Killing: average Δlog10(CFU/ml)” value ([3]; E. coli in 1:4 CA-MHB (pH 7.4), concentration 0.25, vs 8.977 before treatment) was 0.367 log10(CFU/ml). For the same compound, the “log10(CFU/ml) after treatment” value ([3]; E. coli in 1:4 CA-MHB (pH 7.4), concentration 0.5) was 9.301 log10(CFU/ml) and 8.778 log10(CFU/ml) and 8.380 log10(CFU/ml), the “Killing: average Δlog10(CFU/ml)” value ([3]; E. coli in 1:4 CA-MHB (pH 7.4), concentration 0.5, vs 8.977 before treatment) was 0.158 log10(CFU/ml) and the “log10(CFU/ml) after treatment” value ([3]; E. coli in 1:4 CA-MHB (pH 7.4), concentration 1) was 9.079 log10(CFU/ml) and 8.602 log10(CFU/ml) and 8.342 log10(CFU/ml). The “Killing: average Δlog10(CFU/ml)” value ([3]; E. coli in 1:4 CA-MHB (pH 7.4), concentration 1, vs 8.977 before treatment) was 0.303 log10(CFU/ml), the “log10(CFU/ml) after treatment” value ([3]; E. coli in 1:4 CA-MHB (pH 7.4), concentration 2.5) was 9.176 log10(CFU/ml) and 9.204 log10(CFU/ml) and 8.845 log10(CFU/ml) and the “Killing: average Δlog10(CFU/ml)” value ([3]; E. coli in 1:4 CA-MHB (pH 7.4), concentration 2.5, vs 8.977 before treatment) was -0.098 log10(CFU/ml). The “log10(CFU/ml) after treatment” value ([3]; E. coli in 1:4 CA-MHB (pH 7.4), concentration 5) was 9.204 log10(CFU/ml) and 8.699 log10(CFU/ml) (2×), the “Killing: average Δlog10(CFU/ml)” value ([3]; E. coli in 1:4 CA-MHB (pH 7.4), concentration 5, vs 8.977 before treatment) was 0.110 log10(CFU/ml) and the “log10(CFU/ml) after treatment” value ([3]; E. coli in 1:4 CA-MHB (pH 7.4), concentration 10) was 9.114 log10(CFU/ml) and 8.362 log10(CFU/ml) and 8.204 log10(CFU/ml). For the same compound, the “Killing: average Δlog10(CFU/ml)” value ([3]; E. coli in 1:4 CA-MHB (pH 7.4), concentration 10, vs 8.977 before treatment) was 0.417 log10(CFU/ml), the “log10(CFU/ml) after treatment” value ([3]; E. coli in LPM (pH 5.5), concentration 0.25) was 7.000 log10(CFU/ml) and 6.519 log10(CFU/ml) and 7.613 log10(CFU/ml) and the “Killing: average Δlog10(CFU/ml)” value ([3]; E. coli in LPM (pH 5.5), concentration 0.25, vs 7.350 before treatment) was 0.307 log10(CFU/ml). The “log10(CFU/ml) after treatment” value ([3]; E. coli in LPM (pH 5.5), concentration 0.5) was 6.954 log10(CFU/ml) and 6.699 log10(CFU/ml) and 7.531 log10(CFU/ml), the “Killing: average Δlog10(CFU/ml)” value ([3]; E. coli in LPM (pH 5.5), concentration 0.5, vs 7.350 before treatment) was 0.289 log10(CFU/ml) and the “log10(CFU/ml) after treatment” value ([3]; E. coli in LPM (pH 5.5), concentration 1) was 6.778 log10(CFU/ml) and 6.602 log10(CFU/ml) and 7.613 log10(CFU/ml). For the same compound, the “Killing: average Δlog10(CFU/ml)” value ([3]; E. coli in LPM (pH 5.5), concentration 1, vs 7.350 before treatment) was 0.353 log10(CFU/ml), the “log10(CFU/ml) after treatment” value ([3]; E. coli in LPM (pH 5.5), concentration 2.5) was 7.079 log10(CFU/ml) and 6.447 log10(CFU/ml) and 7.491 log10(CFU/ml) and the “Killing: average Δlog10(CFU/ml)” value ([3]; E. coli in LPM (pH 5.5), concentration 2.5, vs 7.350 before treatment) was 0.344 log10(CFU/ml). The “log10(CFU/ml) after treatment” value ([3]; E. coli in LPM (pH 5.5), concentration 5) was 7.204 log10(CFU/ml) and 6.845 log10(CFU/ml) and 7.301 log10(CFU/ml), the “Killing: average Δlog10(CFU/ml)” value ([3]; E. coli in LPM (pH 5.5), concentration 5, vs 7.350 before treatment) was 0.234 log10(CFU/ml) and the “log10(CFU/ml) after treatment” value ([3]; E. coli in LPM (pH 5.5), concentration 10) was 6.778 log10(CFU/ml) and 7.041 log10(CFU/ml) and 7.204 log10(CFU/ml). For the same compound, the “Killing: average Δlog10(CFU/ml)” value ([3]; E. coli in LPM (pH 5.5), concentration 10, vs 7.350 before treatment) was 0.342 log10(CFU/ml).

With `CCCCC(CC)CNC(=N)NC(=N)NCCCCCCNC(=N)NC(=N)NCC(CC)CCCC` (stereo not shown) [Alexidine] the “reduction of non-growing S. aureus” value ([1]; at 10 µM, 24 h treatment) was “below the limit of detection”, the “Regrowth, OD600 at 6h or 8h after dilution into drug-free medium (average)” value ([2]; drug concentration 0.1) was 0.539 and the “Regrowth, OD600 at 6h or 8h after dilution into drug-free medium (average)” value ([2]; drug concentration 0.5) was 0.527. The “Regrowth, OD600 at 6h or 8h after dilution into drug-free medium (average)” value ([2]; drug concentration 2.5) was 0.433, the “Regrowth, OD600 at 6h or 8h after dilution into drug-free medium (average)” value ([2]; drug concentration 10) was 0.087 and the EC50 [2] was 3.28 µM.

For `CN1CCN(c2cc3c(cc2F)c(=O)c(C(=O)O)cn3-c2ccc(F)cc2)CC1` [Difloxacin], the “average Δlog10(CFU/ml) (killing)” value ([1]; drug conc 0.1) was 0.032 log10(CFU/ml), the “average Δlog10(CFU/ml) (killing)” value ([1]; drug conc 0.5) was 0.171 log10(CFU/ml) and the “average Δlog10(CFU/ml) (killing)” value ([1]; drug conc 2.5) was 0.107 log10(CFU/ml). For the same compound, the “average Δlog10(CFU/ml) (killing)” value ([1]; drug conc 10) was 0.435 log10(CFU/ml), the “OD600 at 6h or 8h after dilution into drug-free medium (regrowth)” value ([2]; drug conc 0.1) was 0.660 and the “OD600 at 6h or 8h after dilution into drug-free medium (regrowth)” value ([2]; drug conc 0.5) was 0.630. For the same compound, the “OD600 at 6h or 8h after dilution into drug-free medium (regrowth)” value ([2]; drug conc 2.5) was 0.506, the “OD600 at 6h or 8h after dilution into drug-free medium (regrowth)” value ([2]; drug conc 10) was 0.371 and the EC50 [2] was 2.97 µM.
